From patent US6350762B1, “Dihydropyridine derivative” (Ajinomoto Co., Inc., priority 1997, dated 2002)

Columns and labels:
L-type calcium channel = biological target: T1, L-type calcium channel (Rattus norvegicus, UniProt P22002); assay: Activity of inhibiting L-type calcium channel: relaxation of KCl contraction of isolated rat thoracic aorta; parameters: species or system Wistar rats; conditions: for IC50: KCl contraction of isolated rat thoracic aorta, read-out: L-type inhibition IC50
T1 construct: The slips of thoracic aorta extracted from Wistar rats were used; from tissue; host or cells: isolated thoracic aorta rings of Wistar rats, endothelium removed
T1 sequence (P22002 whole entry): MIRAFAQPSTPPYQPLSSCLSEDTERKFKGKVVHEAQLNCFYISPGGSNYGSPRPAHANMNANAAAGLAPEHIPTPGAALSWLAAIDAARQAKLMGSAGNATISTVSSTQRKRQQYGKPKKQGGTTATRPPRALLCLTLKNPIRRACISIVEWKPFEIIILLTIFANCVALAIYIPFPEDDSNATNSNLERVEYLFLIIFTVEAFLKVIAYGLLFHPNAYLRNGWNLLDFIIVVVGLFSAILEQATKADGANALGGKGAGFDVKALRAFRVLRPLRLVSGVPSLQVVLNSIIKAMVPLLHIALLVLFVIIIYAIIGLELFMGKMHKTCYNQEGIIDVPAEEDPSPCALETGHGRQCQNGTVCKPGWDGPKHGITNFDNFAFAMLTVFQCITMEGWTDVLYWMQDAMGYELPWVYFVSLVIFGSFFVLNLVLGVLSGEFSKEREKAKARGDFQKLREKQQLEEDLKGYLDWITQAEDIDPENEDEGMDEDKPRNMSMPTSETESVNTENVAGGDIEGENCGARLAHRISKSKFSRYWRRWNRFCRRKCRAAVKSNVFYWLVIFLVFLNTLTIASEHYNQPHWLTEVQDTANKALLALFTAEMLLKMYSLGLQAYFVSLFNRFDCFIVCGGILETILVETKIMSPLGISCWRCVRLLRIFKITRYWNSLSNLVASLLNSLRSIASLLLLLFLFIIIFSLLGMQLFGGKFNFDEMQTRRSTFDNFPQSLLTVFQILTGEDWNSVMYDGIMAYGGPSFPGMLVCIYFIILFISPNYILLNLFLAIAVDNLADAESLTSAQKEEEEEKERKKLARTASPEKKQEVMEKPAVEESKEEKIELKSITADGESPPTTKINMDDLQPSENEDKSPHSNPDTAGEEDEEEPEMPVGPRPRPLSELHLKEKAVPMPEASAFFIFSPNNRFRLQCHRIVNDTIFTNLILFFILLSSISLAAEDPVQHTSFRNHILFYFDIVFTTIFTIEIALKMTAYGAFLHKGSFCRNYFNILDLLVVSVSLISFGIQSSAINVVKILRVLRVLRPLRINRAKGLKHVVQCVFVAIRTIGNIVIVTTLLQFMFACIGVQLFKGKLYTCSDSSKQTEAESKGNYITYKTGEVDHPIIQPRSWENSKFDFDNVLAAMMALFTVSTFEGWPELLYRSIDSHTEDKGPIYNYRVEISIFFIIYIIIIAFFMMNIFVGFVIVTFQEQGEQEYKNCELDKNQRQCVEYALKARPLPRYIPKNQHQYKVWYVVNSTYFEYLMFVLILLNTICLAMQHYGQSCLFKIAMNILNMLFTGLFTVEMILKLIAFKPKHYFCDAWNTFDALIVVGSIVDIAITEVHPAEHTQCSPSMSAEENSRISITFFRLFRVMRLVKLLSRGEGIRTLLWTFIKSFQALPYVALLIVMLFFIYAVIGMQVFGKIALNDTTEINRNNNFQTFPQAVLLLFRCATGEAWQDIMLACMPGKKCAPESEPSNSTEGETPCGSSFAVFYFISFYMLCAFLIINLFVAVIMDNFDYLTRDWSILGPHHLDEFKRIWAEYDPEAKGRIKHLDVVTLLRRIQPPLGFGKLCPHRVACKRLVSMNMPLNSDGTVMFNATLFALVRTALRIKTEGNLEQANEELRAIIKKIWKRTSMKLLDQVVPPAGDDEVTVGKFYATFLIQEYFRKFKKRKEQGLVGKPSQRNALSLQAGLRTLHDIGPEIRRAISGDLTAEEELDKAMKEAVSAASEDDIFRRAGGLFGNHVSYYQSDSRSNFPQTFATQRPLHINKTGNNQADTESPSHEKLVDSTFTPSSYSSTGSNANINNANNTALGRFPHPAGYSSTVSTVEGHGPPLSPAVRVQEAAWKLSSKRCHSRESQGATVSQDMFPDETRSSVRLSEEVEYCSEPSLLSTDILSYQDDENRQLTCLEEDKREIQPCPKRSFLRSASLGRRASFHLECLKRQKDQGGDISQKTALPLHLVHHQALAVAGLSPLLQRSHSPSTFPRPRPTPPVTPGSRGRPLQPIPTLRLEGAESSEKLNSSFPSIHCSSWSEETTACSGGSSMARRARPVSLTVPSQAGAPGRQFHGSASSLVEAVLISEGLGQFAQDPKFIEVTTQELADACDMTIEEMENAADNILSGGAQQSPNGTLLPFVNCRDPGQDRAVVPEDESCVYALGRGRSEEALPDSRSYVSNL
T1 sequence (P54290 25-944 partner limits assumed): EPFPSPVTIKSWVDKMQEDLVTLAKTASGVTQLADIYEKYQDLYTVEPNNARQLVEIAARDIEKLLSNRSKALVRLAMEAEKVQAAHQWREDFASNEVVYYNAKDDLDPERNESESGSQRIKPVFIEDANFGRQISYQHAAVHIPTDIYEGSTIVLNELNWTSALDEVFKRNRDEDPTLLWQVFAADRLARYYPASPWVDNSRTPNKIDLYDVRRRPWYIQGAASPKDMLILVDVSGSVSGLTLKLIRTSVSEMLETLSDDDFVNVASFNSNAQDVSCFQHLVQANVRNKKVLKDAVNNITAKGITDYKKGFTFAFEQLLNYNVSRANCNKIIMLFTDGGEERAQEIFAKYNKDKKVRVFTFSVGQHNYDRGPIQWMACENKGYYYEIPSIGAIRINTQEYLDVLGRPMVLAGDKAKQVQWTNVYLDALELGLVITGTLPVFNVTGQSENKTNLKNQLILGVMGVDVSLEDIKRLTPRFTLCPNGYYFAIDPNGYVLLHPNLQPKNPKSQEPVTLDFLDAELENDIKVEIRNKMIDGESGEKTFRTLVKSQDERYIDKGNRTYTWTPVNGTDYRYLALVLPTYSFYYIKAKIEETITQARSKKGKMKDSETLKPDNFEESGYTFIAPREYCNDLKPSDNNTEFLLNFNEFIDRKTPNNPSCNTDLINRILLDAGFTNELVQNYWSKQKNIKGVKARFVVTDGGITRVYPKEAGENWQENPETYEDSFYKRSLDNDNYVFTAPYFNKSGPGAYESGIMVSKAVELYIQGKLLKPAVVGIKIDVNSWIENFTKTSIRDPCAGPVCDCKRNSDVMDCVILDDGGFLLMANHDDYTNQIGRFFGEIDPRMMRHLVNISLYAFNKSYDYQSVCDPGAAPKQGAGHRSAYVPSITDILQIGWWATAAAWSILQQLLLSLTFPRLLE
T1 sequence (P54290 945-1091 partner limits assumed): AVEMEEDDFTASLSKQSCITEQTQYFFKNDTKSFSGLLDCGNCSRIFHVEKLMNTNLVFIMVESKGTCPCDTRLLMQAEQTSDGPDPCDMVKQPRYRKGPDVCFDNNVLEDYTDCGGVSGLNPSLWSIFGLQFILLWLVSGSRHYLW
T1 sequence (P54287 whole entry partner): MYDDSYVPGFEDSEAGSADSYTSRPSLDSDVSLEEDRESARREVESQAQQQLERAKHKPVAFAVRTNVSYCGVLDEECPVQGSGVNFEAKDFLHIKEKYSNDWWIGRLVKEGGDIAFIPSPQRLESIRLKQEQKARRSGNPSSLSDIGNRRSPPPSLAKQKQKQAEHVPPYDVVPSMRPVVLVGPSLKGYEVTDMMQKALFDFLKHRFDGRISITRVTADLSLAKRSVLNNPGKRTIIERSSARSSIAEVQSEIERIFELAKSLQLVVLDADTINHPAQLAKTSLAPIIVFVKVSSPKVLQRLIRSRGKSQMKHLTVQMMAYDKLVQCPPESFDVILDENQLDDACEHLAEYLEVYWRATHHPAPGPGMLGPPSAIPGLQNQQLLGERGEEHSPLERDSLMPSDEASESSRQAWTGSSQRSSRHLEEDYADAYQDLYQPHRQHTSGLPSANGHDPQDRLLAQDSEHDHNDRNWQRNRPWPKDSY
Description: Activity of Inhibiting the Action of L-type Calcium Channel
The activity of the dihydropyridine derivatives of the present invention to inhibit the action of L-type calcium channel was determined by the following method wherein the relaxation reaction on the KCl contraction of isolated thoracic aorta samples of rats was utilized.
1) Preparation of Isolated Thoracic Aorta Samples of Rats
The slips of thoracic aorta extracted from Wistar rats were used. Blood vessels were cut to form rings having a width of about 3 mm. The endothelial cells of the blood vessels were mechanically removed. The samples were suspended in a strain gauge in Tyrode solution (comprising 158.3 mM of NaCl, 4.0 mM of KCl, […] of MgCl2, 0.42 mM of NaH2PO4, 10 mM of NaHCO3, 2 mM of CaCl2 and 5 mM of glucose) in which a gaseous mixture of O2 (95%) and CO2 (5%) was introduced, to apply a stationary tension of 2 g. The tension of the blood vessel was recorded with a multipen recorder (Rikadenki Kogyo Co., Ltd.) by using a transducer after the amplification with a tension amplifier (EF-601G; Nihon Kohden Corporation). The experiments were conducted at 37° C.
2) Determination of Relaxation Reaction Against KCl contraction
After the tension was stabilized, the nutrient solution in the sample tank was replaced with High K^+ Tyrode solution (comprising 112.3 mM of NaCl, 50 mM of KCl, 1.05 mM of MgCl2, 0.42 mM of NaH2PO4, 10 mM of NaHCO3, 2 mM of CaCl2 and 5 mM of glucose) to cause the contraction reaction. 30 minutes after, the solution in the sample tank was replaced with normal Tyrode solution. Then, the solution in the sample tank was again replaced with High K^+ Tyrode solution and the contraction reaction was observed. After the maximum contraction reaction occurred, a test compound was cumulatively added to realize concentrations of 10^−9, 10^−8, 10^−7 and 10^−6 M at intervals of 90 minutes. The inhibition rate of the test compound on the maximum contraction reaction was employed as the index of the activity of inhibiting the action of L-type calcium channel.

N-type calcium channel [1] = biological target: T2, N-type calcium channel (Homo sapiens, UniProt Q00975); assay: Activity of inhibiting N-type calcium channel (fluorescent dye method), IMR-32 cells; assay type: cell-based; conditions: fluorescent dye (fura-2) method, 60 mM KCl stimulation, 1 μM Nifedipine present; for IC50: read-out: N-type inhibition pIC50 (converted)
T2 construct: Human neuroblastoma cell IMR-32 was obtained from ATCC (American Type Culture Collection); host or cells: IMR-32 human neuroblastoma cells, differentiated with dibutyl cAMP and bromodeoxyuridine
Description: Activity of Inhibiting the Action of N-type Calcium Channel (Fluorescent Dye Method):
Human neuroblastoma cell IMR-32 was obtained from ATCC (American Type Culture Collection). The culture medium was prepared by adding 2 mM of L-glutamine (GIBCO), 1 mM of sodium pyruvate of pH 6.5 (GIBCO), a liquid antibiotic/antimicotic mixture (GIBCO) and 10% fetal calf serum (Cell Culture Technologies) to an Eagle minimum essential medium (GIBCO) free of Phenol Red and containing earle's salts supplyment. 3 ml of 1×10^5/ml IMR-32 cells was spread on a glass dish (Iwaki Glass Co., Ltd.) having a bottom diameter of 35 mm, which had been treated with poly-D-lysine (SIGMA) and also with collagen (COLLAGEN VITROGEN 100; a product of Collagen Co.). After the culture for 2 days, 1 mM (final concentration) of dibutyl cAMP and 2.5 μM of bromodeoxyuridine (SIGMA) were added to the culture mixture. After the culture for additional 10 to 14 days, the cells were used for the activity determination. The IMR-32 cell medium prepared as described above was replaced with Eagle minimum essential medium (GIBCO) containing 1 ml of 10 μM fura-2/AM (Dojin Kagaku Co.) and earle's salts supplyment but free of Phenol Red, and the incubation was conducted at 25° C. for one hour.
Then the medium was replaced with fura-2/AM-free Eagle minimum essential medium (GIBCO) free of Phenol Red and containing earle's salts supplyment. After conducting the incubation at 37° C. for one hour, the medium was replaced with a recording medium (comprising 20 mM of HEPES-KOH, 115 mM of NaCl, 5.4 mM of KCl, 0.8 mM of MgCl2, 1.8 mM of CaCl2 and 13.8 mM of D-glucose). The N-calcium channel inhibition activity was determined and analyzed with a fluorescent microscope (Nikon corporation) and an image analysis apparatus ARGUS 50 (Hamamatsu Photonics). Namely, a recording medium (comprising 20 mM of HEPES-KOH, 115 mM of NaCl, 5.4 mM of KCl, 0.8 mM of MgCl2, 1.8 mM of CaCl2 and 13.8 mM of D-glucose) containing 1 μM of Nifedipine was applied to the cells and refluxed by Y-tube method for 2 minutes. Then, a 60 mM potassium chloride-containing stimulating agent was rapidly given. Thereafter, 60 mM potassium chloride-containing stimulating agents which further contained 0.1, 1 or 10 μM of a test compound were rapidly and successively administered by Y-tube method to determine the channel inhibition activity. Finally, 60 mM potassium chloride-containing stimulating agent further containing 1 μM of omega conotoxin (Peptide Kenkyu-sho) was rapidly given by Y-tube method to realize 100% inhibition of the N-type calcium channel.

N-type calcium channel [2] = biological target: T3, N-type calcium channel (Rattus norvegicus, UniProt Q02294); assay: Inhibition activity of N-type calcium channel (patch clamp method), rat maxillary sympathetic ganglion cells; assay type: cell-based, Wistar rats; conditions: 0.1 uM compound, whole cell voltage clamp, barium current
T3 construct: from tissue; host or cells: acutely dissociated sympathetic ganglion cells of Wistar rats (2 to 4 weeks old)
Description: Inhibition Activity of N-type Calcium Channel (Patch Clamp Method)
1) Preparation of Cells of Maxillary Sympathetic Ganglions of Rats
The cervix of each of Wistar rats (2 to 4 weeks old) was opened to expose the maxillary ganglions under anesthesia with pentobarbital. A pair of the ganglions were removed and immediately washed with Ca^2+-free Tyrode solution cooled with ice. Each ganglion was cut into 3 or 4 pieces and kept in the Ca^2+-free Tyrode solution for 15 minutes. Then, these pieces were treated with papain [Washington Biochemicals (lot#35J557); 20 U/ml] for 20 minutes and then with a mixture of 2-type collagenase [Washington Biochemicals (CLS2); 5900 U/ml]and dispase [Calbiochem (lot#1312973); 16 mg/ml] for one hour. After enzymatic treatment, the ganglion cells were mechanically isolated by pipetting. The isolated ganglion cells were used for the experiments within 6 hours.
2) Determination of Calcium Electric Current
The calcium electric current was determined by the whole cell voltage clamp method under the fixed membrane potential. The pipette electrode was pulled from glass tube (inner diameter: 1.5 mm; Narishige) in two stage of a vertical pipette puller (PB-7; Narishige). The ionic current was amplified with a patch amplifier (CEZ-2300; Nihon Kohden Corporation). The noises were cut at 10 kHz (E-3201B, NF Electronic Instrument) and then the ionic current was monitored on a storage oscilloscope (DS-9121, Iwatsu) and, at the same time, recorded with a DAT data recorder (RD-120TE, TEAC). Then it was passed through a 1 kHz filter and recorded in a computer (Compaq DeskPro) with pCLAMP software (Axon Instrument) of 3 kHz. All the experiments were performed at room temperature (25±2° C.). In the measurement of the current through the calcium channel, 10 mM barium (composition of the solution: shown below) was used in place of calcium as the charge carrier. The transmission of barium through the calcium channel was higher than that of calcium in the sympathetic ganglion cells, and the calcium-dependent channel inactivation was slight when barium was used.
The test compounds were rapidly administered by Y-tube method by Murase et al. [Brain Res. 525, 84 (1990)]. Each compound was dissolved in DMSO preparing 10 mM mother solution. At the highest drug concentration used, the vehicle (0.1%) had no significant effect on the calcium electric current.
Composition of Normal Tyrode's solution: NaCl; 143, KCl; 4, MgCl2; 0.5; CaCl2; 1.8, glucose; 5.5, NaH2PO4; 0.33, HEPES; 5 (Mm). The pH was adjusted to 7.4 with tris-OH.
Composition of Ca-free Tyrode's solution: the same as that of the Normal Tyrode's solution except that it was free of CaCl2.
External solution for the determination of calcium electric current (mM): TEACl; 144, CsCl;. […]

[3] = 10^−7 M compound, inhibition rate on maximum KCl contraction of rat thoracic aorta

inhibition at 0.1 µM (L-type calcium channel; [3]) [%]	IC50 (L-type calcium channel) [nM]	IC50 (N-type calcium channel [1]) [nM]	inhibition at 0.1 µM (N-type calcium channel [2]) [%]	L-type inhibition 10^−7 M (%) (L-type calcium channel; [3])	N-type inhibition pIC50 (N-type calcium channel [1])	N-type inhibition 0.1 uM (%) (N-type calcium channel [2])	Compound
19	> 1000	5010	35	–	–	–	CC1=C(C(=O)O)C(c2cccc(Cl)c2)C(C(=O)NCC=Cc2ccccc2)=C(C)N1 (stereo not shown) [Example 1, 4-(3-chlorophenyl)-2,6-dimethyl-5-(3-phenyl-2-propene-1-ylcarbamoyl)-1,4-dihydropyridine-3-carboxylic acid]
-7	914	1580	16	–	–	–	CC1=C(C(=O)O)C(c2cccc([N+](=O)[O-])c2)C(C(=O)NC/C=C/c2ccccc2)=C(C)N1 (stereo not shown) [Example 4, 2,6-dimethyl-4-(3-nitrophenyl)-5-(3-phenyl-2-propene-1-ylcarbamoyl)-1,4-dihydropyridine-3-carboxylc acid]
–	–	2510	–	–	–	–	CC1=C(C(=O)O)C(c2cccc(C#N)c2)C(C(=O)NCC=Cc2ccccc2)=C(C)N1 (stereo not shown) [Example 10, 4-(3-cyanophenyl)-2,6-dimethyl-5-(3-phenyl-2-propene-1-ylcarbamoyl)-1,4-dihydropyridine-3-carboxylic acid]
-6	> 1000	1580	16	–	–	–	CC1=C(C(=O)O)C(c2ccc([N+](=O)[O-])cc2)C(C(=O)NCC=Cc2ccccc2)=C(C)N1 (stereo not shown) [Example 17, 2,6-dimethyl-4-(4-nitrophenyl)-5-[(3-phenyl-2-propene-1-yl)carbamoyl]-1,4-dihydropyridine-3-carboxylic acid]
–	–	794	–	–	–	–	CC1=C(C(=O)O)C(c2cccc(Cl)c2)C(C(=O)NCC(=O)Nc2ccccc2)=C(C)N1 (stereo not shown) [Example 21, 4-(3-chlorophenyl)-2,6-dimethyl-5-(phenylcarbamoylmethylcarbamoyl)-1,4-dihydropyridine-3-carboxylic acid]
–	–	631	–	–	–	–	CC1=C(C(=O)O)C(c2cccc(Cl)c2)C(C(=O)NCCC(c2ccccc2)c2ccccc2)=C(C)N1 (stereo not shown) [Example 34, 4-(3-chlorophenyl)-2,6-dimethyl-5-(3,3-diphenylpropylcarbamoyl)-1,4-dihydropyridine-3-carboxylic acid]
–	220	–	–	21	5.9	24	(3-phenyl-2-propene-1-yl) 4-(3-chlorophenyl)-5-cyano-2,6-dimethyl-1,4-dihydropyridine-3-carboxylate [Example 12]
